Reference: US11547681B2, “N-acylethanolamide derivatives and uses thereof” (ELIEM THERAPEUTICS, INC., priority 2016, dated 2023)

Assay: in vitro
Details: male; for Measured concentration of analyte PEA, 0 min / Measured concentration of analyte PEA, 10 min / Measured concentration of analyte PEA, 20 min / Measured concentration of analyte PEA, 30 min / Measured concentration of analyte PEA, 60 min / % Remaining of Initial, 0 min / % Remaining of Initial, 10 min / % Remaining of Initial, 20 min / % Remaining of Initial, 30 min / % Remaining of Initial, 60 min / Concentration, analyte PEA / % Remaining of Initial (n = 1): 1 μM; for % Remaining of Initial, 0 min / % Remaining of Initial, 10 min / % Remaining of Initial, 20 min / % Remaining of Initial, 30 min / % Remaining of Initial, 60 min / microsomal CLint at 1 μM / half-life at 1 μM / % Remaining of Initial (n = 1): microsomes
Protocol: (§1) Reaction mixture, minus cofactors, was prepared as described below. Test article was added into the reaction mixture at a final concentration of 1 μM. […] An aliquot of the reaction mixture (without cofactor) was equilibrated in a shaking water bath at 37° C. for 3 minutes. The reaction was initiated by the addition of cofactor, and the mixture was incubated in a shaking water bath at 37° C. Aliquots (100 μL) were withdrawn at 0, 10, 20, 30, and 60 minutes. Test article samples were immediately combined with 300 μL of ice-cold acetonitrile containing 1% formic acid. Control samples were immediately combined with 400 μL of ice-cold 50/50 acetonitrile (ACN)/dH2O containing 0.1% formic acid and internal standard to terminate the reaction. Samples were then mixed and centrifuged to precipitate proteins. Calibration standards were prepared in matched matrix. Samples and standards were assayed by LC-MS/MS using electrospray ionization for both dosed prodrug and expected drug (PEA). Analytical conditions are outlined in Appendix 8-1. Test article concentration at each time point was compared to test article concentration at time 0 to determine the percent remaining at each time point. Half-lives were calculated using GraphPad software, fitting to a single-phase exponential decay equation.
Reaction mixture, minus cofactors, was prepared as described below. Test article was added into the reaction mixture at a final concentration of 1 μM. […] An aliquot of the reaction mixture (without cofactor) was equilibrated in a shaking water bath at 37° C. for 5 minutes. Reaction was initiated by the addition of cofactor, and the mixture was incubated in a shaking water bath at 37° C. Aliquots (100 μL) were withdrawn at 0, 10, 20, 30, and 60 minutes. Test article samples were immediately combined with 300 μL of ice-cold acetonitrile containing 1% formic acid. Control samples were immediately combined with 400 μL of ice-cold 50/50 acetonitrile (ACN)/dH2O containing 0.1% formic acid and internal standard to terminate the reaction. Samples were then mixed and centrifuged to precipitate proteins. Calibration standards were prepared in matched matrix. Samples and standards were assayed by LC-MS/MS using electrospray ionization for both the dosed prodrug and the expected drug (PEA). Analytical conditions are outlined in Appendix 10-1. Test article concentration at each time point was compared to the test article concentration at time 0 to determine the percent remaining at each time point. Half-lives were calculated using GraphPad software, fitting to a single-phase exponential decay equation.
as §1, with “minutes. Reaction” for “minutes. The reaction”, “300 μL,” for “300 μL”, “Appendix 13-1.” for “Appendix 8-1.”
Reaction mixture, minus cofactors, was prepared as described below.

Measured concentration of analyte PEA, 0 min (Beagle, dog, 0 min) [µM] | Measured concentration of analyte PEA, 10 min (Beagle, dog, 10 min) [µM] | Measured concentration of analyte PEA, 20 min (Beagle, dog, 20 min) [µM] | Measured concentration of analyte PEA, 30 min (Beagle, dog, 30 min) [µM] | Measured concentration of analyte PEA, 60 min (Beagle, dog, 60 min) [µM] | % Remaining of Initial, 0 min (Beagle, dog, 0 h) [%] | % Remaining of Initial, 10 min (Beagle, dog, 10 min) [%] | % Remaining of Initial, 20 min (Beagle, dog, 20 min) [%] | % Remaining of Initial, 30 min (Beagle, dog, 0.5 h) [%] | % Remaining of Initial, 60 min (Beagle, dog, 1 h) [%] | microsomal CLint at 1 μM (Beagle, dog) [µL/min/mg] | half-life at 1 μM (Beagle, dog) [min] | Measured concentration of analyte PEA, 0 min (CD-1, mouse, 0 min) [µM] | Measured concentration of analyte PEA, 10 min (CD-1, mouse, 10 min) [µM] | Measured concentration of analyte PEA, 20 min (CD-1, mouse, 20 min) [µM] | Measured concentration of analyte PEA, 30 min (CD-1, mouse, 30 min) [µM] | Measured concentration of analyte PEA, 60 min (CD-1, mouse, 60 min) [µM] | % Remaining of Initial, 0 min (CD-1, mouse, 0 h) [%] | microsomal CLint at 1 μM (CD-1, mouse) [µL/min/mg] | half-life at 1 μM (CD-1, mouse) [min] | Compound | also measured
0.032 | 0.32 | 0.26 | 0.20 | 0.097 | 100 | 3.6 | <1.0 | <1.0 | <1.0 | 665 | 2.1 | 0.22 | 0.32 | 0.18 | 0.12 | 0.030 | 100 | 687 | 2 | CCCCCCCCCCCCCCCC(=O)NCCOC(=O)CCC(=O)OCC(COC(=O)CCC)OC(=O)CCC (stereo not drawn) [Compound I-11] | % Remaining of Initial, 10 min (CD-1, mouse, 10 min): 3.2%; % Remaining of Initial, 20 min (CD-1, mouse, 20 min): <1.0%; % Remaining of Initial, 30 min (CD-1, mouse, 0.5 h): <1.0%; % Remaining of Initial, 60 min (CD-1, mouse, 1 h): <1.0%
 |  |  |  |  |  |  |  |  |  | 36.2 | 38 |  |  |  |  |  |  | 29.1 | 48 | CCCCC/C=C\C/C=C\CCCCCCCC(=O)OCC(COC(=O)CCC(=O)OCCNC(=O)CCCCCCCCCCCCCCC)OC(=O)CCCCCCC/C=C\C/C=C\CCCCC (stereo not drawn) [Compound I-13] | Concentration, analyte PEA (Beagle, dog, 0 min): 0 nM; Concentration, analyte PEA (Beagle, dog, 10 min): 0 nM; Concentration, analyte PEA (Beagle, dog, 20 min): 0 nM; Concentration, analyte PEA (Beagle, dog, 30 min): 0 nM; Concentration, analyte PEA (Beagle, dog, 60 min): 0 nM; % Remaining of Initial (n = 1) (Beagle, dog, 0 h): 100%; % Remaining of Initial (n = 1) (Beagle, dog, 10 min): 78%; % Remaining of Initial (n = 1) (Beagle, dog, 20 min): 76%; % Remaining of Initial (n = 1) (Beagle, dog, 0.5 h): 56%; % Remaining of Initial (n = 1) (Beagle, dog, 1 h): 32%; Concentration, analyte PEA (CD-1, mouse, 0 min): 0 nM; Concentration, analyte PEA (CD-1, mouse, 10 min): 0 nM; Concentration, analyte PEA (CD-1, mouse, 20 min): 0 nM; Concentration, analyte PEA (CD-1, mouse, 30 min): 0 nM; Concentration, analyte PEA (CD-1, mouse, 60 min): 0 nM; % Remaining of Initial (n = 1) (CD-1, mouse, 0 h): 100%; % Remaining of Initial (n = 1) (CD-1, mouse, 10 min): 69%; % Remaining of Initial (n = 1) (CD-1, mouse, 20 min): 75%; % Remaining of Initial (n = 1) (CD-1, mouse, 0.5 h): 54%; % Remaining of Initial (n = 1) (CD-1, mouse, 1 h): 44%
0.59 | 0.50 | 0.47 | 0.38 | 0.20 | 100 | 1.6 | 1.4 | 1.3 | <1.0 | 823 | 1.7 | 0.28 | 0.29 | 0.18 | 0.11 | 0.034 | 100 | 814 | 1.7 | CCCCCCCCCCCCCCCC(=O)NCCOC(=O)CCC(=O)OC[C@H]1O[C@@](CO)(O[C@H]2O[C@H](CO)[C@@H](O)[C@H](O)[C@H]2O)[C@@H](O)[C@@H]1O [Compound I-7] | % Remaining of Initial, 10 min (CD-1, mouse, 10 min): 1.7%; % Remaining of Initial, 20 min (CD-1, mouse, 20 min): 1.2%; % Remaining of Initial, 30 min (CD-1, mouse, 0.5 h): <1.0%; % Remaining of Initial, 60 min (CD-1, mouse, 1 h): <1.0%
